Reference: US9358243B2, “Pharmaceutical compounds for use in the therapy of Clostridium difficile infection” (ETH Zurich, priority 2011, dated 2016)

Tests used:
[1] = molecular target: T1, His-tagged cysteine protease domain of C. difficile toxin B (Clostridioides difficile, UniProt P18177); assay: Determination of EC50 in presence of 10 mM Ca2+ (cleavage of TcdB cysteine protease domain, SDS-PAGE); format: biochemical, Clostridium difficile; details: for cleavage activity at 100 μM: 100 μM compound, 10 mM Ca2+, FIG. 1A; for activity (cleavage of TcdB CPD) in the presence of calcium, compared with IP6: in the presence of calcium (10 mM Ca2+)
T1 construct: cysteine protease domain of C. difficile toxin B
T1 sequence (P18177 544-799 limits assumed): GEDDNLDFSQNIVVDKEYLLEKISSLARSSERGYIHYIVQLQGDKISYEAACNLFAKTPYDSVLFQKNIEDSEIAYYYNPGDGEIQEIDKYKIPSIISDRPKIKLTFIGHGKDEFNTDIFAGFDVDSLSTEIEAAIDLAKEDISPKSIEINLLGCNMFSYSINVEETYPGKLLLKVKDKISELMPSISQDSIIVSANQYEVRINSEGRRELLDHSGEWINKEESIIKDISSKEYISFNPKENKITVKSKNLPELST
Procedure: The compound to be tested was added to a recombinant His-tagged cysteine protease domain of C. difficile toxin B of SEQ ID 1 in presence of 10 mM Ca^2+ in 100 mM Tris pH7.4 and incubated for 2 h at 37° C. Cleaved protein fragments were separated by SDS-PAGE and visualized by Coomassie staining. The extent of cleavage quantified from protein band intensities using the ImageJ software package. Signals were normalized to cleavage of positive and negative controls.

[2] = molecular target: T1, His-tagged cysteine protease domain of C. difficile toxin B; assay: Comparison of cleavage kinetics in presence of 10 mM Ca2+; format: biochemical, Clostridium difficile; details: 37° C., FIG. 1B
Procedure: The compound to be tested was added to the His-tagged cysteine protease domain of C. difficile toxin B (same sequence as given above) in presence of 10 mM Ca^2+ in 100 mM Tris pH 7.4 and incubated for 24 h at 37° C., with aliquots removed at regular intervals. Cleaved protein fragments were separated, visualized and analyzed as indicated above.

Row | Compound | EC50 [1] [µM] | cleavage activity at 100 μM [1] | activity (cleavage of TcdB CPD) in the presence of calcium, compared with IP6 [1] | extent of cleavage after 4 h relative to IP6 [2] [fold]
1 | O=P(O)(O)O[C@H]1[C@H](OP(=O)(O)O)[C@@H](OP(=O)(O)O)[C@H](OP(=O)(O)O)[C@@H](OP(=O)(O)O)[C@H]1OP(=O)(O)O [IP6, myo-inositol hexakisphosphate, reference compound] | 601 | disappears almost completely | – | –
2 | O=S(=O)(O)OC1C(OS(=O)(=O)O)C(OS(=O)(=O)O)C(OS(=O)(=O)O)C(OS(=O)(=O)O)C1OS(=O)(=O)O (stereo not shown) [IS6, inositolhexakissulfate] | – | – | much more active than IP6 | –
3 | O=P(O)(O)O[C@H]1[C@H](OS(=O)(=O)O)[C@@H](OP(=O)(O)O)[C@H](OS(=O)(=O)O)[C@@H](OP(=O)(O)O)[C@H]1OS(=O)(=O)O [PSPSPS] | 20 | – | – | –
4 | myo-inositol-pentakisphosphate-2-PEG(400) [(7)] | – | retains residual activity | improved ability to cleave TcdB CPD | 5
